Data from ChEMBL document CHEMBL2440076, “New triarylpyrazoles as broad-spectrum anticancer agents: design, synthesis, and biological evaluation” (Eur J Med Chem, 2013).

Experiments:
[1] = tested on: HCT-116; assay: Growth inhibition of human HCT116 cells after 48 hrs by sulforhodamine B assay; format: functional; details: HCT-116, 48 h; for CC50: read-out: LC50 (the source's name)
[2] = tested on: SN12C; assay: Growth inhibition of human SN12C cells assessed as cell growth at 10 uM after 48 hrs by sulforhodamine B assay; format: functional; details: read-out: Activity
[3] = tested on: IGROV-1; assay: Growth inhibition of human IGROV1 cells after 48 hrs by sulforhodamine B assay; format: functional; details: IGROV-1, 48 h
[4] = tested on: BT-549; assay: Growth inhibition of human BT549 cells assessed as cell growth at 10 uM after 48 hrs by sulforhodamine B assay; format: functional; details: BT-549, 48 h, read-out: Activity
[5] = tested on: HT-29; assay: Growth inhibition of human HT-29 cells after 48 hrs by sulforhodamine B assay; format: functional; details: HT-29, 48 h; for CC50: read-out: LC50 (the source's name)
[6] = tested on: MOLT-4; assay: Growth inhibition of human MOLT4 cells after 48 hrs by sulforhodamine B assay; format: functional; details: MOLT-4, 48 h; for CC50: read-out: LC50 (the source's name)
[7] = tested on: UACC-62; assay: Growth inhibition of human UACC62 cells assessed as cell growth at 10 uM after 48 hrs by sulforhodamine B assay; format: functional; details: UACC-62, 48 h, read-out: Activity
[8] = tested on: NCI-H460; assay: Growth inhibition of human NCI-H460 cells assessed as cell growth at 10 uM after 48 hrs by sulforhodamine B assay; format: functional; details: NCI-H460, 48 h, read-out: Activity
[9] = tested on: LOX IMVI; assay: Growth inhibition of human LOXIMVI cells assessed as cell growth at 10 uM after 48 hrs by sulforhodamine B assay; format: functional; details: read-out: Activity
[10] = tested on: SK-MEL-5; assay: Growth inhibition of human SK-MEL-5 cells assessed as cell growth at 10 uM after 48 hrs by sulforhodamine B assay; format: functional; details: SK-MEL-5, 48 h, read-out: Activity
[11] = tested on: NCI-H322M; assay: Growth inhibition of human NCI-H322M cells assessed as cell growth at 10 uM after 48 hrs by sulforhodamine B assay; format: functional; details: read-out: Activity
[12] = tested on: SNB-19; assay: Growth inhibition of human SNB19 cells assessed as cell growth at 10 uM after 48 hrs by sulforhodamine B assay; format: functional; details: SNB-19, 48 h, read-out: Activity
[13] = tested on: 786-0; assay: Growth inhibition of human 786-0 cells assessed as cell growth at 10 uM after 48 hrs by sulforhodamine B assay; format: functional; details: 786-0, 48 h, read-out: Activity
[14] = tested on: SF-268; assay: Growth inhibition of human SF268 cells assessed as cell growth at 10 uM after 48 hrs by sulforhodamine B assay; format: functional; details: SF-268, 48 h, read-out: Activity
[15] = tested on: SNB-19; assay: Growth inhibition of human SNB19 cells after 48 hrs by sulforhodamine B assay; format: functional; details: SNB-19, 48 h
[16] = tested on: NCI-H23; assay: Growth inhibition of human NCI-H23 cells after 48 hrs by sulforhodamine B assay; format: functional; details: NCI-H23, 48 h
[17] = tested on: SF-539; assay: Growth inhibition of human SF539 cells assessed as cell growth at 10 uM after 48 hrs by sulforhodamine B assay; format: functional; details: SF-539, 48 h, read-out: Activity
[18] = tested on: MDA-MB-231; assay: Growth inhibition of human MDA-MB-231 cells after 48 hrs by sulforhodamine B assay; format: functional; details: MDA-MB-231, 48 h
[19] = Growth inhibition of human Hs 578T cells after 48 hrs by sulforhodamine B assay; format: functional; details: for CC50: read-out: LC50 (the source's name)
[20] = tested on: MDA-MB-435; assay: Growth inhibition of human MDA-MB-435 cells assessed as cell growth at 10 uM after 48 hrs by sulforhodamine B assay; format: functional; details: MDA-MB-435, 48 h, read-out: Activity
[21] = tested on: U-251; assay: Growth inhibition of human U251 cells after 48 hrs by sulforhodamine B assay; format: functional; details: U-251, 48 h
[22] = tested on: Malme-3M; assay: Growth inhibition of human MALME-3M cells after 48 hrs by sulforhodamine B assay; format: functional
[23] = tested on: OVCAR-5; assay: Growth inhibition of human OVCAR5 cells after 48 hrs by sulforhodamine B assay; format: functional; details: OVCAR-5, 48 h
[24] = tested on: MDA-MB-468; assay: Growth inhibition of human MDA-MB-468 cells after 48 hrs by sulforhodamine B assay; format: functional, cell-based; details: MDA-MB-468, 48 h; for CC50: read-out: LC50 (the source's name)
[25] = tested on: SF-295; assay: Growth inhibition of human SF295 cells after 48 hrs by sulforhodamine B assay; format: functional, cell-based; details: SF-295, 48 h; for CC50: read-out: LC50 (the source's name)
[26] = tested on: TK-10; assay: Growth inhibition of human TK10 cells assessed as cell growth at 10 uM after 48 hrs by sulforhodamine B assay; format: functional; details: TK-10, 48 h, read-out: Activity
[27] = tested on: A549; assay: Growth inhibition of human A549/ATCC cells assessed as cell growth at 10 uM after 48 hrs by sulforhodamine B assay; format: functional; details: A549, 48 h, read-out: Activity
[28] = tested on: HL-60(TB); assay: Growth inhibition of human HL-60(TB) cells assessed as cell growth at 10 uM after 48 hrs by sulforhodamine B assay; format: functional; details: HL-60, 48 h, read-out: Activity
[29] = tested on: A549; assay: Growth inhibition of human A549/ATCC cells after 48 hrs by sulforhodamine B assay; format: functional; details: A549, 48 h
[30] = Growth inhibition of human Hs 578T cells assessed as cell growth at 10 uM after 48 hrs by sulforhodamine B assay; format: functional; details: read-out: Activity
[31] = tested on: PC-3; assay: Growth inhibition of human PC3 cells after 48 hrs by sulforhodamine B assay; format: functional, cell-based; details: PC-3, 48 h; for CC50: read-out: LC50 (the source's name)
[32] = tested on: RXF 393; assay: Growth inhibition of human RXF393 cells after 48 hrs by sulforhodamine B assay; format: functional; details: RXF 393, 48 h
[33] = tested on: RXF 393; assay: Growth inhibition of human RXF393 cells assessed as cell growth at 10 uM after 48 hrs by sulforhodamine B assay; format: functional; details: RXF 393, 48 h, read-out: Activity
[34] = tested on: NCI-H322M; assay: Growth inhibition of human NCI-H322M cells after 48 hrs by sulforhodamine B assay; format: functional; details: for CC50: read-out: LC50 (the source's name)

SMILES: COc1cc(-c2nn(-c3cccc(NC(=O)Nc4cccc(C(F)(F)F)c4)c3)cc2-c2ccncc2)ccc1Cl
- GI50 [1]: 0.9 µM
- TGI [1]: 7.17 µM
- CC50 [1]: > 50 µM
- growth at 10 µM [2]: 7.22%
- GI50 [3]: 1.06 µM
- LC50 (concentration killing 50% of cells) [3]: 50 µM
- TGI [3]: 3.11 µM
- growth at 10 µM [4]: -15.4%
- GI50 [5]: 0.748 µM
- TGI [5]: 1.87 µM
- CC50 [5]: 4.67 µM
- GI50 [6]: 0.936 µM
- TGI [6]: 3.48 µM
- CC50 [6]: > 50 µM
- growth at 10 µM [7]: -76.1%
- growth at 10 µM [8]: -7.91%
- growth at 10 µM [9]: -64.2%
- growth at 10 µM [10]: -97.8%
- growth at 10 µM [11]: 21.7%
- growth at 10 µM [12]: 23.5%
- growth at 10 µM [13]: -15%
- growth at 10 µM [14]: 2.35%
- GI50 [15]: 0.981 µM
- LC50 (concentration killing 50% of cells) [15]: > 50 µM
- TGI [15]: 4 µM
- GI50 [16]: 1.18 µM
- LC50 [16]: > 50 µM
- TGI [16]: 3.41 µM
- growth at 10 µM [17]: -34.2%
- GI50 [18]: 0.811 µM
- LC50 [18]: 25.5 µM
- TGI [18]: 2.37 µM
- GI50 [19]: 1.23 µM
- TGI [19]: 12.5 µM
- CC50 [19]: > 50 µM
- growth at 10 µM [20]: -50%
- GI50 [21]: 0.645 µM
- LC50 (concentration killing 50% of cells) [21]: 2.92 µM
- TGI [21]: 1.37 µM
- GI50 [22]: 1.05 µM
- LC50 (concentration killing 50% of starting cells) [22]: 33.9 µM
- TGI [22]: 2.41 µM
- GI50 [23]: 1.27 µM
- LC50 (concentration killing 50% of cells) [23]: > 50 µM
- TGI [23]: 6.45 µM
- GI50 [24]: 0.598 µM
- IC50 [24]: 0.6 µM
- TGI [24]: 2.16 µM
- CC50 [24]: 50 µM
- GI50 [25]: 0.306 µM
- IC50 [25]: 0.31 µM
- TGI [25]: 1.13 µM
- CC50 [25]: 3.2 µM
- growth at 10 µM [26]: 2.65%
- growth at 10 µM [27]: -14%
- growth at 10 µM [28]: -18.7%
- GI50 [29]: 0.794 µM
- LC50 (concentration killing 50% of starting cells) [29]: > 50 µM
- TGI [29]: > 50 µM
- growth at 10 µM [30]: -13.7%
- GI50 [31]: 0.372 µM
- IC50 [31]: 0.37 µM
- TGI [31]: 2.51 µM
- CC50 [31]: > 50 µM
- GI50 [32]: 0.777 µM
- LC50 (concentration killing 50% of cells) [32]: 4.83 µM
- TGI [32]: 1.94 µM
- growth at 10 µM [33]: -69.8%
- GI50 [34]: 1.21 µM
- TGI [34]: 4.73 µM
- CC50 [34]: > 50 µM

SMILES: COc1cc(-c2nn(-c3cccc(NC(=O)c4ccc(Cl)c(C(F)(F)F)c4)c3)cc2-c2ccncc2)ccc1Cl
- GI50 [1]: 2.49 µM
- TGI [1]: > 32.5 µM
- CC50 [1]: > 32.5 µM
- growth at 10 µM [2]: 57.3%
- GI50 [3]: 2.15 µM
- LC50 (concentration killing 50% of cells) [3]: > 32.5 µM
- TGI [3]: > 32.5 µM
- growth at 10 µM [4]: 49.7%
- GI50 [5]: 3.38 µM
- TGI [5]: > 32.5 µM
- CC50 [5]: > 32.5 µM
- GI50 [6]: 5.24 µM
- TGI [6]: > 32.5 µM
- CC50 [6]: > 32.5 µM
- growth at 10 µM [7]: 32.8%
- growth at 10 µM [8]: 25.4%
- growth at 10 µM [9]: 32.2%
- growth at 10 µM [10]: 17.5%
- growth at 10 µM [11]: 84.9%
- growth at 10 µM [12]: 66%
- growth at 10 µM [13]: 59.5%
- growth at 10 µM [14]: 46.7%
- GI50 [15]: 8.68 µM
- LC50 (concentration killing 50% of cells) [15]: > 32.5 µM
- TGI [15]: > 32.5 µM
- GI50 [16]: 5.39 µM
- LC50 [16]: > 32.5 µM
- TGI [16]: > 32.5 µM
- growth at 10 µM [17]: 33%
- GI50 [18]: 1.2 µM
- LC50 [18]: > 32.5 µM
- TGI [18]: > 32.5 µM
- GI50 [19]: 2.17 µM
- TGI [19]: > 32.5 µM
- CC50 [19]: > 32.5 µM
- growth at 10 µM [20]: -26.8%
- GI50 [21]: 3.1 µM
- LC50 (concentration killing 50% of cells) [21]: > 32.5 µM
- TGI [21]: > 32.5 µM
- GI50 [22]: 1.18 µM
- LC50 (concentration killing 50% of starting cells) [22]: > 32.5 µM
- TGI [22]: 19.7 µM
- GI50 [23]: > 32.5 µM
- LC50 (concentration killing 50% of cells) [23]: > 32.5 µM
- TGI [23]: > 32.5 µM
- GI50 [24]: 3.69 µM
- IC50 [24]: 3.69 µM
- TGI [24]: > 32.5 µM
- CC50 [24]: > 32.5 µM
- GI50 [25]: 1.38 µM
- IC50 [25]: 1.38 µM
- TGI [25]: 17.3 µM
- CC50 [25]: > 32.5 µM
- growth at 10 µM [26]: 69.5%
- growth at 10 µM [27]: 23.3%
- growth at 10 µM [28]: 3.23%
- GI50 [29]: 2.4 µM
- LC50 (concentration killing 50% of starting cells) [29]: > 32.5 µM
- TGI [29]: > 32.5 µM
- growth at 10 µM [30]: 34.7%
- GI50 [31]: 1.29 µM
- IC50 [31]: 1.29 µM
- TGI [31]: > 32.5 µM
- CC50 [31]: > 32.5 µM
- GI50 [32]: 1.76 µM
- LC50 (concentration killing 50% of cells) [32]: > 32.5 µM
- TGI [32]: 18.7 µM
- growth at 10 µM [33]: -0.4%
- GI50 [34]: 12.8 µM
- TGI [34]: > 32.5 µM
- CC50 [34]: > 32.5 µM
